The record followed here is ChEMBL document CHEMBL1208765, “Structure-activity relationship of lupane-triterpene glycosides from Acanthopanax koreanum on spleen lymphocyte IL-2 and IFN-gamma” (2010).

Structures are written as SMILES.

Type in all cases: functional
Test [1] deals with Splenocyte. Briefly: Immunomodulatory effect in mouse splenocyte assessed as increase in ConA-induced IL2 release at 25 uM by lymphoproliferation test.
The subject of test [2] is Splenocyte. Briefly: Immunomodulatory effect in mouse splenocyte assessed as increase in ConA-induced IFN-gamma release at 5 uM by lymphoproliferation test.
The test system of test [3] is Splenocyte. The test is described as follows: Immunomodulatory effect in mouse splenocyte assessed as increase in ConA-induced IL2 release at 100 uM by lymphoproliferation test.
Test [4] concerns Splenocyte. The test is described as follows: Immunomodulatory effect in mouse splenocyte assessed as increase in ConA-induced IFN-gamma release at 25 uM by lymphoproliferation test.
Test [5] relates to Splenocyte. Briefly: Immunomodulatory effect in mouse splenocyte assessed as increase in ConA-induced IFN-gamma release at 100 uM by lymphoproliferation test.
The test system of test [6] is Splenocyte. The test is described as follows: Immunomodulatory effect in mouse splenocyte assessed as increase in ConA-induced IL2 release at 5 uM by lymphoproliferation test.

`C=C(CO)[C@@H]1CC[C@]2(C(=O)O[C@H]3O[C@@H](CO[C@H]4O[C@@H](CO)[C@H](O[C@H]5O[C@@H](C)[C@H](O)[C@@H](O)[C@H]5O)[C@@H](O)[C@@H]4O)[C@H](O)[C@@H](O)[C@@H]3O)CC[C@]3(C)[C@H](C[C@@H](O)[C@@H]4[C@@]5(C)CC[C@@H](O[C@@H]6O[C@H](CO)[C@@H](O)[C@H](O)[C@H]6O)C(C)(C)[C@@H]5CC[C@]43C)[C@@H]12` [ACANKOREOSIDE N]: the Activity with Splenocyte [1] worked out at 13.66 pg/mL; with Splenocyte [2], 1.5 pg/mL; in the test on Splenocyte [3], 19.06 pg/mL; in the test on Splenocyte [4], 1.55 pg/mL; in the test on Splenocyte [5], 1.92 pg/mL; in the test on Splenocyte [6] it was 17.11 pg/mL.
As to `COC(OC)[C@@H](C)[C@@H]1CC[C@]2(C(=O)O[C@H]3O[C@@H](CO[C@H]4O[C@@H](CO)[C@H](O[C@H]5O[C@@H](C)[C@H](O)[C@@H](O)[C@H]5O)[C@@H](O)[C@@H]4O)[C@H](O)[C@@H](O)[C@@H]3O)CC[C@]3(C)[C@H](CC[C@@H]4[C@@]5(C)CC[C@@H](O)[C@@](C)(C(=O)O)[C@@H]5CC[C@]43C)[C@@H]12` [ACANKOREOSIDE L], the Activity with Splenocyte [1] stood at 45.06 pg/mL; in the test with Splenocyte [2], 3.53 pg/mL; in the test with Splenocyte [3], 74.47 pg/mL; in the test on Splenocyte [4], 3.71 pg/mL; in the test with Splenocyte [5], 6.07 pg/mL; in the test with Splenocyte [6] it was 20.68 pg/mL.
On to `C=C(CO)[C@@H]1CC[C@]2(C(=O)O[C@H]3O[C@@H](CO[C@H]4O[C@@H](CO)[C@H](O[C@H]5O[C@@H](C)[C@H](O)[C@@H](O)[C@H]5O)[C@@H](O)[C@@H]4O)[C@H](O)[C@@H](O)[C@@H]3O)CC[C@]3(C)[C@H](C[C@@H](O)[C@@H]4[C@@]5(C)CC[C@@H](O)[C@@](C)(C=O)[C@@H]5CC[C@]43C)[C@@H]12` [ACANKOREOSIDE I], for which the Activity is 12.91 pg/mL in the test with Splenocyte [1]; 1.25 pg/mL with Splenocyte [2]; 14.76 pg/mL in the test on Splenocyte [3]; 4.18 pg/mL in the test with Splenocyte [4]; 2.59 pg/mL with Splenocyte [5]; 10.07 pg/mL with Splenocyte [6].
As to `C=C(C)[C@@H]1CC[C@]2(C(=O)O[C@@H]3O[C@H](CO[C@@H]4O[C@H](CO)[C@@H](O[C@H]5O[C@@H](C)[C@H](O)[C@@H](O)[C@H]5O)[C@H](O)[C@H]4O)[C@@H](O)[C@H](O)[C@H]3O)CC[C@]3(C)[C@H](C[C@@H](O)[C@@H]4[C@@]5(C)CC[C@@H](O)[C@@](C)(C=O)[C@@H]5CC[C@]43C)[C@@H]12` [ACANKOREOSIDE D], the Activity in the test with Splenocyte [1] stood at 25.32 pg/mL; in the test with Splenocyte [2] it was 3.69 pg/mL; in the test with Splenocyte [3], 41.34 pg/mL; in the test on Splenocyte [4] it was 4.62 pg/mL; in the test on Splenocyte [5], 5.29 pg/mL; in the test on Splenocyte [6] it was 19.26 pg/mL.
Regarding `C=C(CO)[C@@H]1CC[C@]2(C(=O)O[C@H]3O[C@@H](CO[C@H]4O[C@@H](CO)[C@H](O[C@H]5O[C@@H](C)[C@H](O)[C@@H](O)[C@H]5O)[C@@H](O)[C@@H]4O)[C@H](O)[C@@H](O)[C@@H]3O)CC[C@]3(C)[C@H](C[C@@H](O)[C@@H]4[C@@]5(C)CC[C@@H](O)[C@@](C)(C(=O)O)[C@@H]5CC[C@]43C)[C@@H]12` [ACANKOREOSIDE M], the Activity in the test with Splenocyte [1] came out at 16.92 pg/mL; with Splenocyte [2], 1.57 pg/mL; in the test with Splenocyte [3], 17.26 pg/mL; with Splenocyte [4] it was 2.45 pg/mL; with Splenocyte [5], 2.48 pg/mL; in the test with Splenocyte [6] it was 15.27 pg/mL.
As for `C=C(C)[C@@H]1CC[C@]2(C(=O)O[C@@H]3O[C@H](CO[C@@H]4O[C@H](CO)[C@@H](O[C@H]5O[C@@H](C)[C@H](O)[C@@H](O)[C@H]5O)[C@H](O)[C@H]4O)[C@@H](O)[C@H](O)[C@H]3O)CC[C@]3(C)[C@H](C[C@@H](O)[C@@H]4[C@@]5(C)CC[C@@H](O)C(C)(C)[C@@H]5CC[C@]43C)C12` (stereo partly specified) [ACANTRIFOSIDE A], the Activity was determined as 25.57 pg/mL with Splenocyte [1]; 4.55 pg/mL in the test on Splenocyte [2]; 50.66 pg/mL in the test on Splenocyte [3]; 5.23 pg/mL in the test with Splenocyte [4]; 5.41 pg/mL with Splenocyte [5]; 20.07 pg/mL in the test on Splenocyte [6].
`CC(C)[C@]1(O)CC[C@]2(C(=O)O[C@H]3O[C@@H](CO[C@H]4O[C@@H](CO)[C@H](O[C@H]5O[C@@H](C)[C@H](O)[C@@H](O)[C@H]5O)[C@@H](O)[C@@H]4O)[C@H](O)[C@@H](O)[C@@H]3O)CC[C@]3(C)[C@H](CC[C@@H]4[C@@]5(C)CC[C@@H](O)[C@@](C)(C(=O)O)[C@@H]5CC[C@]43C)[C@H]21` [ACANKOREOSIDE O]: the Activity with Splenocyte [1] amounted to 11.82 pg/mL; with Splenocyte [2] it was 1.81 pg/mL; with Splenocyte [3] it was 16.3 pg/mL; in the test with Splenocyte [4], 1.68 pg/mL; in the test with Splenocyte [5], 2.44 pg/mL; in the test with Splenocyte [6], 13.89 pg/mL.
`C=C(CO)[C@@H]1CC[C@]2(C(=O)O[C@H]3O[C@@H](CO[C@H]4O[C@@H](CO)[C@H](O[C@H]5O[C@@H](C)[C@H](O)[C@@H](O)[C@H]5O)[C@@H](O)[C@@H]4O)[C@H](O)[C@@H](O)[C@@H]3O)CC[C@]3(C)[C@H](CC[C@@H]4[C@@]5(C)CC[C@@H](O)[C@@](C)(C(=O)O)[C@@H]5CC[C@]43C)[C@@H]12` [ACANKOREOSIDE F]: the Activity with Splenocyte [1] came to 23.47 pg/mL; in the test with Splenocyte [2], 3.3 pg/mL; in the test with Splenocyte [3] it was 27.57 pg/mL; in the test with Splenocyte [4] it was 4 pg/mL; in the test on Splenocyte [5] it was 4.2 pg/mL; with Splenocyte [6], 16.09 pg/mL.
Turning to `C[C@@H]1O[C@H](O[C@@H]2[C@@H](O)[C@H](O)[C@@H](OC[C@@H]3O[C@H](OC(=O)[C@]45CC[C@@H]([C@](C)(O)CO)[C@@H]4[C@H]4CC[C@@H]6[C@@]7(C)CC[C@@H](O)[C@@](C)(C(=O)O)[C@@H]7CC[C@@]6(C)[C@]4(C)CC5)[C@@H](O)[C@H](O)[C@H]3O)O[C@H]2CO)[C@H](O)[C@H](O)[C@H]1O` [ACANKOREOSIDE K], the Activity worked out at 20.24 pg/mL with Splenocyte [1]; 2.78 pg/mL in the test on Splenocyte [2]; 21.57 pg/mL in the test with Splenocyte [3]; 3.2 pg/mL in the test on Splenocyte [4]; 3.66 pg/mL with Splenocyte [5]; 16.69 pg/mL in the test on Splenocyte [6].
In the case of `CC(=O)[C@@H]1CC[C@]2(C(=O)O[C@H]3O[C@@H](CO[C@H]4O[C@@H](CO)[C@H](O[C@H]5O[C@@H](C)[C@H](O)[C@@H](O)[C@H]5O)[C@@H](O)[C@@H]4O)[C@H](O)[C@@H](O)[C@@H]3O)CC[C@]3(C)[C@H](CC[C@@H]4[C@@]5(C)CC[C@@H](O)[C@@](C)(C(=O)O)[C@@H]5CC[C@]43C)[C@@H]12` [ACANKOREOSIDES J], the Activity in the test with Splenocyte [1] was 16.14 pg/mL; in the test with Splenocyte [2], 2.75 pg/mL; in the test with Splenocyte [3], 28.27 pg/mL; in the test on Splenocyte [4], 3.78 pg/mL; in the test on Splenocyte [5], 4.36 pg/mL; in the test with Splenocyte [6] it was 15.78 pg/mL.
As to `C=C(C)[C@@H]1CC[C@]2(C(=O)O[C@@H]3O[C@H](CO[C@@H]4O[C@H](CO)[C@@H](O[C@@H]5O[C@@H](C)[C@H](O)[C@@H](O)[C@H]5O)[C@H](O)[C@H]4O)[C@@H](O)[C@H](O)[C@H]3O)CC[C@]3(C)[C@H](CC[C@@H]4[C@@]5(C)CC[C@@H](O)[C@@](C)(C(=O)O)[C@@H]5CC[C@]43C)[C@@H]12` [ACANKOREOSIDE A], the Activity with Splenocyte [1] turned out to be 24.87 pg/mL; in the test with Splenocyte [2] it was 2.89 pg/mL; with Splenocyte [3], 29.78 pg/mL; with Splenocyte [4], 4.62 pg/mL; in the test with Splenocyte [5], 4.57 pg/mL; in the test with Splenocyte [6] it was 17.04 pg/mL.
